Results taken from US9814740B2, “Methods and compositions combining immunotherapy with monocyte activation” (Duke University, priority 2010, dated 2017).

Key:
peritoneal B cells = assay: Peritoneal B cell depletion by CD20 mAb with TLR agonists; type: in vivo, mouse; settings: MyD88^−/− versus C57BL/6 mice
Description: Immunofluorescence analysis. CD20 expression was visualized using biotin-conjugated mouse CD20 (MB20-11) mAb (Uchida et al., 2004b) plus phycoerythrin-Cy5 (PE-Cy5) streptavidin (eBioscience, San Diego, Calif.). Other mAbs included: B220 (RA3-6B2), CD1d (1B1), CD5 (53-7.3), CD19 (1D3), NK1.1 (PK136), and I-A/I-E (M5/114.15.2) from BD Biosciences (San Jose, Calif.). CD11b (M1/70), CD86 (GL1), F4/80 (BM8), IgM (II/41), Gr-1 (RB6-8C5), and IL-10 (JES5-16E3) mAbs were from eBioscience. TNF-α (MP6-XT22) mAb was from Biolegend (San Diego, Calif.). For immunofluorescence analysis, single cell suspensions (10^6 cells) were stained at 4° C. using predetermined optimal concentrations of mAb for 30 minutes as described (Sato et al., 1996). CD20 immunotherapy and TLR agonist treatments. Sterile mouse anti-mouse CD20 mAb (MB20-11, IgG2c) and unreactive mouse control IgG2a mAb were as described ([…]-Colin et al., 2008). In some experiments, mice were treated with anti-NK1.1 mAb ([…]) on day -4 and day 3 for N K cell depletion. Macrophage deficiency was generated by tail vein injections of clodronate-encapsulated liposomes (Sigma-Aldrich) or control PBS-encapsulated liposomes (Van Rooijen and Sanders, 1994) 0.2 ml given on day -1 and 0.1 ml given on days 2, 5, and 9 (FIG. 3B) or 0.2 ml given on days -2, 1, and 4 (FIG. 3C). […]

FcγRII/III = FcγRII/III expression by innate effector cells after TLR agonist treatment; type: in vivo, mouse; settings: splenocytes 18 h after treatment
Protocol: FIG. 4 is a set of graphs showing that TLR agonists induce monocyte activation and enhance CD20 mAb-induced B cell depletion. […] Splenocytes were isolated from mice 18 h later and analyzed for FcγRII/III expression by immunofluorescence staining. For FIGS. 4A-B the results represent 2 independent experiments. […] B1b and B2 cells were distinguished based on their differential expression of CD11b. […] Representative peritoneal lymphocytes of CpG-treated MyD88^-/- or wild type mice following CD20 or control mAb (25 μg) treatment. Percentages (±SEM) represent mean B220^+ cell frequencies within the indicated gates 7 days after CD20 mAb treatment (≧3 mice per value) relative to control mAb-treated littermates (n=3). In FIG. 4C-E significant differences between sample means are indicated; *p<0.05, **p<0.01. Results represent 3-4 independent experiments. Immunofluorescence analysis. CD20 expression was visualized using biotin-conjugated mouse CD20 (MB20-11) mAb (Uchida et al., 2004b) plus phycoerythrin-Cy5 (PE-Cy5) streptavidin (eBioscience, San Diego, Calif.). Other mAbs included: B220 (RA3-6B2), CD1d (1B1), CD5 (53-7.3), CD19 (1D3), NK1.1 (PK136), and I-A/I-E (M5/114.15.2) from BD Biosciences (San Jose, Calif.). CD11b (M1/70), CD86 (GL1), F4/80 (BM8), IgM (II/41), Gr-1 (RB6-8C5), and IL-10 (JES5-16E3) mAbs were from eBioscience. TNF-α (MP6-XT22) mAb was from Biolegend (San Diego, Calif.). […]

mouse spleen B cells = assay: B10pro cell maturation in vitro (mouse); type: cell-based; settings: purified mouse spleen B cells, 48 h
Protocol: (§1) For IL-10 detection, mouse spleen or blood mononuclear cells, BL3750 tumor cells, or human blood were resuspended (2×10^6 cells/ml) in complete medium [RPMI 1640 media (Cellgro, Herndon, Va.) containing 10% FCS (Sigma, St. Louis, Mo.). […]. 4 mM L-Glutamine (all Cellgro), and 55 μM 2-mercaptoethanol (Invitrogen, Carlsbad. CA)] with lipopolysaccharide (LPS, 10 μg/ml, Escherichia coli serotype 0111: B4, Sigma), phorbol myristate acetate (PMA, 50 ng/ml; Sigma), ionomycin (500 ng/ml; Sigma), and monensin (2 μM; eBioscience) for 5 h. B10 progenitor cells were induced to mature and acquire IL-10 competence in vitro by culturing the cells with LPS (10 μg/ml), CpG (human ODN 2006, 10 μg/ml; Invivogen, San Diego, Calif., mouse ODN 1668, 10 μg/ml; Integrated DNA Technologies, Coralville, Iowa), or poly I:C (Invivogen) for 48 h with the addition of monensin, PMA and ionomycin for the last 5 h of culture. For TNF-α detection, bone marrow cells were resuspended (2×10^6 cells/ml) in complete medium with Brefeldin A (1 μl; Biolegend) and TLR agonists (25 μg/ml) for 4 h. Before cell surface staining, Fc receptors were blocked using Fc receptor mAb (2.4G2; BD Biosciences), and dead cells were labeled using a LIVE/DEAD® Fixable Green Dead Cell Stain Kit (Invitrogen-Molecular Probes). […]

purified spleen B cells = assay: B cell proliferation assay (CFSE); type: cell-based, mouse; settings: 25 μg/ml, 72 h
Protocol: Proliferation assay. Splenic B cells were purified using CD19 mAb-coated microbeads (Miltenyi) and labeled with CFSE Vybrant™ CFDA SE fluorescent dye (5 μM; Invitrogen). Labeled B cells were then cultured in medium with LPS, CpG, or poly I:C (25 μg/ml) for 72 h and assessed by flow cytometry.

[1] = tested on: human blood mononuclear cells; assay: B10pro cell maturation in vitro (human); type: cell-based; settings: 48 h, CpG = human ODN 2006
Protocol: as §1

[2] = tested on: bone marrow CD11b+ monocytes; assay: TLR-induced TNF-α production by CD11b+ bone marrow cells; type: cell-based, mouse; settings: TLR agonists 25 μg/ml, 4 h, Brefeldin A
Protocol: as §1

[3] = tested on: purified mouse spleen B cells; assay: Secreted IL-10 ELISA; type: cell-based; settings: 25 μg/ml, 72 h
Protocol: Cytokine ELISA. Secreted IL-10 was quantified by ELISA. Purified B cells (4×10^5) were cultured in 0.2 ml of complete medium with TLR agoninsts (25 μg/ml) in a 96-well flat-bottom tissue culture plates. Culture supernatant fluid IL-10 concentrations were quantified using IL-10 OptEIA ELISA kits (BD PharMingen) bfollowing the manufacturer's protocols. All assays were carried out using triplicate samples.

[4] = compared with parent poly I:poly C; cited from earlier work
BL3750 lymphoma cells = assay: BL3750 lymphoma model; type: in vivo, mouse
Protocol: Lymphoma model. BL3750 lymphoma cells were as described (Minard-Colin et al., 2008). This lymphoma model is accepted by those skilled in the art as a standard model for human lymphoma disease. For each experiment, tumor cells were thawed and expanded for 24-48 hours in complete medium (RPMI 1640 media containing 20% fetal bovine serum, 100 U/ml penicillin, 100 μg/ml streptomycin, 2 mM L-glutamine, and 55 μM 2-mercaptoethanol). BL3750 cells in 250 μl PBS were injected subcutaneously into the dorsal skin of recipient mice on day 0. This mouse model of lymphoma is a standard animal model for human lymphoma used and accepted by those skilled in the art. Mice were then given purified mAb in 250 μl of PBS intravenously, and starting on day 7 were monitored daily for tumor development and progression, and survival. Tumor measurements were as described (Minard-Colin et al., 2008).
CD20 immunotherapy and TLR agonist treatments. […] In some experiments, mice were treated with anti-NK1.1 mAb (100 g) on day −4 and day 3 for N K cell depletion. Macrophage deficiency was generated by tail vein injections of clodronate-encapsulated liposomes (Sigma-Aldrich) or control PBS-encapsulated liposomes (Van Rooijen and Sanders, 1994) 0.2 ml given on day −1 and 0.1 ml given on days 2, 5, and 9 (FIG. 3B) or 0.2 ml given on days −2, 1, and 4 (FIG. 3C).

macrophages = assay: In vitro assay of antibody-dependent phagocytosis; type: cell-based, mouse
Protocol: In vitro assay of antibody-dependent phagocytosis. Spleen B cells were purified by MACS B cell isolation (Miltenyi Biotech), labeled with CFSE Vybrant™ CFDA SE fluorescent dye (5 μM; Invitrogen) and cultured over night in complete medium. CFSE-labeled B cells were incubated with CD20 mAb (MB20-11) on ice for 1 h, and washed with complete medium to remove unbound mAb. Macrophages were isolated from the peritoneal cavity of thioglycolate-treated mice by lavage. Peritineal macrophages were further purified by adherence to plastic before culture with or without poly I:C (25 μg/ml) in complete medium at 37° C. in a 5% CO2 atmosphere for 18 h. Macrophages and B cells were mixed at a 1:1 ratio and cultured for 2.5 h. The cell mixture was then stained with PE-conjugated CD11b mAb with the percentage of CFSE^+CD11b^+ (double-positive cells) analyzed by flow cytometry.

[5] = 10^5 BL3750 cells day 0, control mAb plus TLR agonist on days 1, 7, 14 and 21

Substance	ability to enhance peritoneal B cell depletion by CD20 mAb (peritoneal B cells)	FcγRII/III expression by innate effector cells (FcγRII/III)	B10pro cell maturation into IL-10-competent B10 cells (mouse spleen B cells)	B cell proliferation (purified spleen B cells)	B10pro cell maturation into IL-10-competent B10 cells [1]	TNF-α production by monocytes [2]	IL-10 secretion [3]	toxicity [4]	reducing tumor growth in the mouse model (BL3750 lymphoma cells; compared with Poly (I:C))	effect on mouse survival (BL3750 lymphoma cells; [5])	median survival (BL3750 lymphoma cells; [5])	phagocytic capacity of macrophages (macrophages; macrophages from TLR3^−/− or TRIF^−/− mice)	macrophage phagocytosis of CD20 mAb-coated B cells (macrophages; wild type macrophages, poly I:C 25 μg/ml 18 h, 1:1, 2.5 h)
CpG: CpG ODN 1668 (5′tccATGACGTTCCTGAtgcT3′, bases in lower case are phosphorothioate); TLR9 agonist (DNA TCCATGACGTTCCTGATGCT; DNA, linkages s3 o13 s3 (s phosphorothioate, o phosphodiester), methylation of C not given here)	significantly reduced by MyD88-deficiency	higher levels of FcγRII/III expression	induced significant numbers of B10pro cells to mature	proliferated significantly	induced significant numbers of B10pro cells to mature	induced significant TNF-α production	induced IL-10 secretion						
poly I:poly C12U [Ampligen]								lower toxicity					
polyadenylic-polyuridylic acid [Poly (A:U)]									not as effective as Poly (I:C)				
polyinosinic-polycytidylic acid [poly I:C]		higher levels of FcγRII/III expression	without effect	did not proliferate	without effect	induced significant TNF-α production	without effect			significant affect on mouse survival	33 days	unable to augment	significantly enhanced
